Tests used:
INS-1 (832/13) cells [1] = assay: Glucose stimulated insulin secretion (GSIS) in INS-1 (832/13) cells; assay type: cell-based, rat; settings: 0.5 mM palmitate 24 h, AvoB 25 μM, ETO 100 μM
Experimental: To measure glucose stimulated insulin secretion (GSIS) in INS-1(832/13) cells a standard protocol was adopted. […] After treatments were complete, cell media was replaced with KRB (Krebs-Ringer Bicarbonate) buffer. Cells were then challenged with 3 mM glucose for 2 h in KRB buffer after which 500 μL KRB buffer was collected and frozen in −80° C. until analysis. For another 2 h, cells were challenged with 16 mM glucose after which 500 μL KRB was collected and frozen in −80° C. until analysis. The amount of insulin released into the KRB buffer was determined by an ELISA kit (Millipore, Rat/Mouse Insulin Detection kit). Data was normalized for cellular protein content, as determined by the Micro-BCA Protein Assay kit. The glucose-dependent insulin secretory index (GSIS16/3), defined as the ratio between the insulin secretion at 16 mM (stimulatory, surrogate to postprandial glucose levels) and 3 mM (basal, surrogate to fasting glucose levels) glucose was also calculated.

INS-1 (832/13) cells [2] = assay: Cytosolic calcium determination (fluo-3AM) in INS-1 (832/13) cells; assay type: cell-based, rat; settings: 0.5 mM palmitate, non-stimulatory glucose, AvoB 25 μM, ETO 100 μM, TMB-8 10 μM
Experimental: INS-1 (832/13) cells were treated as described for the FAO assays but also with metabolic modulators dichloroacetate (DCA) (1 mM) and trimetazidine (25 μM) as well as 10 μM endoplasmic reticulum calcium blocker 8-(N,N-Diethylamino)-octyl-3,4,5-trimethoxybenzoate HCl (TMB-8) (Sigma Aldrich) or 25 nM cyclosporin (Sigma Aldrich) in the presence of 0.5 mM palmitate/1 mM L-carnitine. Cytosolic calcium was measured in INS-1 (832/13) cells using fluo-3AM (Invitrogen, F1241) charged fluorescent dye that accumulates in the cytosol and emits green fluorescence after binding calcium ions. A stock solution of 10 mM fluo-3AM was diluted to 5 μM in fluo-3AM loading buffer (10 mM 4-(2-hydroxyethyl)-1-piperazineethanesulfonic acid (HEPES), 137 mM NaCl, […], 1 mM Na2HPO4, 5 mM glucose, and 0.5 mM MgCl2 (pH 7.4)]. After treatment, cells were incubated in fluo-3AM loading buffer for 30 min at 37° C. with gentle agitation after which cells were washed twice with PBS, trypsinized and collected for flow cytometry analysis. Cytosolic calcium was quantified by taking the mean green fluorescence values of live gated cells and normalizing to vehicle control.

[3] = system: insulin signaling (pAkt-Ser473), MAPK, AMPK; assay: Immunoblotting (pAkt, pERK1/2, pP38, pAMPKα, PGC-1α) and NAO mitochondrial mass in C2C12 myotubes; assay type: cell-based, mouse; settings: 0.5 mM palmitate 24 h, 100 nM insulin 30 min, AvoB 25 μM, DCA 1 mM, TRI 25 μM
Experimental: For all ROS studies, INS-1 (832/13) cells and C2C12 myotubes were treated with or without palmitate and FAO inhibitors for 24 h in low glucose cell culture media as described for the FAO assay. After treatment, cells were trypsinized and re-suspended in PBS containing 5 μM of the fluorescent dye MitoSOX® (Molecular Probes, Invitrogen) and allowed to incubate for 5-15 minutes in a humidified atmosphere containing 5% CO2 at 37° C. Cells were then washed in PBS, placed in a 96 well plate and fluorescence was measured by flow cytometry. ROS was quantified by normalizing the mean fluorescence values of live gated cells to vehicle control. Mitochondrial membrane potential (MMP) in INS-1 (832/13) and C2C12 myotubes was measured using the cationic fluorescent dye JC-1 (Molecular Probes). JC-1 accumulates in the mitochondrial matrix in an MMP dependent manner. JC-1 fluoresces green in the cytosol where it exists as a monomer, after entering the mitochondria JC-1 monomers form J aggregates and fluoresce red, thus the red/green fluorescence ratio is used to determine MMP. After all treatments, cells were washed, trypsinized and re-suspended in PBS containing 1 μM JC-1 and allowed to incubate for 5-10 minutes in a humidified atmosphere containing 5% CO2 at 37° C. Cells were then washed in PBS, placed in a 96 well plate and fluorescence was measured by flow cytometry. MMP was quantified by normalizing the mean fluorescence values of live gated cells to vehicle control. Mitochondrial mass was measured using 10-N-nonyl acridine orange (NAO; Enzo Life Sciences, ENZ-52306), which accumulates in the mitochondria in an MMP-independent manner where it binds to cardiolipin in the inner mitochondrial membrane. Cells were treated, washed and collected as described and incubated with 0.35 μM NAO and green fluorescence was measured using flow cytometry. In all analysis (ROS, MMP and mitochondrial mass), forward vs side scatter plots were gated to exclude debris (e.g., dead cells), as cell death is associated with increased ROS and altered membrane potentials. For all cell culture experiments, after drug treatments cells were washed with chilled phosphate-buffered saline (PBS), and lysed in chilled lysis buffer with 1× protease inhibitor cocktail (Sigma). RIPA lysis buffer (Sigma-Aldrich) was used for INS-1 (832/13) cells and muscle lysis buffer for C2C12 myotubes (20 mM HEPES, 10 mM NaCl, 1.5 mM MgCl2, 1 mM DTT, 20% glycerol, and 0.1% Triton-X100). Cells were scraped, mechanically homogenized using a syringe and centrifuged at 14,000×g for 20 min at 4° C. and the supernatants were collected. For preparation of all gastrocnemius muscle lysates, 10 mg frozen tissue (wet weight) was washed in chilled PBS, placed in a dounce homogenizer, lysed in muscle lysis buffer and centrifuged at 14,000×g for 20 min at 4° C. and the supernatant was collected. Protein content for cell and tissue lysates was measured using the BCA protein assay kit (ThermoFisher) according to manufacturer's protocol. Thirty μg protein lysates were prepared in loading buffer and immunoblotting was performed by heating lysates for 5 minutes at 95° C. and subjecting them to gel electrophoresis on 10% SDS-polyacrylamide gels at 150 V for 75 minutes. Using a semi-dry transfer apparatus (Bio-Rad) the gels were then transferred at 25V for 45 minutes to a PVDF membrane and blocked with 5% BSA (Sigma) in tris-buffered saline-tween (TBS-T) for 1 hour. […]

C2C12 myotubes = assay: Cellular ATP content in C2C12 myotubes; assay type: cell-based, mouse; settings: 0.5 mM palmitate 24 h, AVO 25 μM, DCA 1 mM, TRI 25 μM
Experimental: Total cellular ATP content was determined using the ATP bioluminescent assay kit (Calbiochem, 119107). Briefly, cells were seeded in white walled 96-well plates (1.2×10^4 cells/well for INS-1 and 2×10^4 cells/well for C2C12) and treated for 24 h (C2C12 cells were differentiated for 5 days prior to treatments whereas INS-1 cells were treated 24 h after seeding). After treatment, culture media was removed, and cells were lysed with nucleotide releasing buffer with gentle shaking for 5 min. ATP monitoring enzyme was then added to cell lysates and plates and luminescence was read in a Biotek Synergy HT spectrophotometer (Biotek; Winooski, VT).

SMILES	Glucose stimulated insulin secretion (GSIS) (INS-1 (832/13) cells [1])	Cytosolic Ca2+ (Fluo-3AM) (INS-1 (832/13) cells [2])	Insulin signaling (insulin stimulated phosphorylation of AKT Ser473) [3]	Total cellular ATP content (C2C12 myotubes)
CCOC(=O)[C@@]1(CCCCCCOc2ccc(Cl)cc2)CO1 [ETO, etomoxir, reference compound]	GSIS was higher	able to reduce cytosolic Ca^2+		
CCN(CC)CCCCCCCCOC(=O)c1cc(OC)c(OC)c(OC)c1.Cl [TMB-8, 8-(N,N-Diethylamino)-octyl-3,4,5-trimethoxybenzoate HCl]		able to reduce cytosolic Ca^2+		
COc1ccc(CN2CCNCC2)c(OC)c1OC [trimetazidine, reference compound]			did not exert such effects	did not exert such effects
